Literature values as cited in patent publication US20030181371A1, “Compositions and methods of using collajolie” (Angiotech Pharmaceuticals, Inc., priority 2001, published 2003).

What was measured:
[1] = not given; remark: listed apart in the source

| SMILES | well tolerated daily dosage [mg] | other results |
| --- | --- | --- |
| CN(C)[C@@H]1C(O)=C(C(N)=O)C(=O)[C@@]2(O)C(O)=C3C(=O)c4c(O)cccc4[C@@](C)(O)C3C[C@@H]12 (stereo in doubt) [tetracycline, 4-(dimethylamino)-1,4,4a,5,5a,6,11,12a-octahydro-3,6,10,12,12a-pentahydroxy-6-methyl-1,11-dioxo-2-naphthacenecarboxamide] | 1000 |  |
| CNC(=O)[C@H](Cc1ccccc1)NC(=O)[C@H](CC(C)C)[C@H](CSc1cccs1)C(=O)NO [Batimistat] |  | solubility [1]: highly insoluble |
| CNC(=O)[C@@H](NC(=O)[C@H](CC(C)C)[C@H](O)C(=O)NO)C(C)(C)C [Marimistat] |  | established well tolerated single daily dose (single daily dose): 50 mg |
| C[C@H]1c2cccc(O)c2C(=O)C2=C(O)[C@]3(O)C(=O)C(C(N)=O)=C(O)[C@@H](N(C)C)[C@@H]3[C@@H](O)[C@@H]21 [doxycycline, α-6-deoxy-5-hydroxy-tetracycline] | 100 |  |
| CN(C)c1ccc(O)c2c1C[C@H]1C[C@H]3[C@H](N(C)C)C(O)=C(C(N)=O)C(=O)[C@@]3(O)C(O)=C1C2=O [minocycline, 7-dimethylamino-6-dimethyl-6-deoxytetracycline] | 200 |  |
